Reference: article PMC9716151, “Synthesis, antimalarial, antileishmanial evaluation, and molecular docking study of some 3-aryl-2-styryl substituted-4(3H)-quinazolinone derivatives” (BMC Chemistry, 2022)
Converted amounts (≈) assume the structure as drawn. Where two headings read alike, the source gives them in different places.

Columns and labels:
[1] = tested on: Leishmania donovani promastigotes (clinical isolate); assay: in vitro antipromastigote activity test (AlamarBlue/resazurin); format: cell-based; settings: for IC50: Leishmania donovani
Experimental: The antipromastigote activities of the synthesized compounds and the existing antileishmanial drugs (miltefosine and amphotericin B deoxycholate) were assessed using the clinical isolate of the Leishmania donovani strain, which is known to cause VL worldwide. The soluble, stable and non-toxic fluorescence dye, AlamarBlue® (resazurin) (Trek Diagnostic Systems, Inc., Cleveland, OH, USA) was used to quantitatively determine the viability of Leishmania donovani and compute the IC50 value of target compounds and the reference drugs. Only metabolically active cells can reduce resazurin and convert into fluorescent resorufin. Thus, the fluorescent intensity of resorufin is directly correlated to the number of viable Leishmania donovani cells. […] Inspired by its promising antileishmanial outcome, (E)-2-(4-nitrostyryl)-3-phenylquinazolin-4(3H)-one (6) was subjected to molecular docking study by fitting it in Lm-PTR1 active site to gain an insight about the types of interactions between the simulated enzyme and itself.
RPMI-1640, 10% heat-inactivated fetal calf serum (HIFCS), 1% penicillin–streptomycin, and 1% L-glutamine were supplied to make a complete culture medium. The Leishmania donovani isolate was grown first on Novy-MacNeal-Nicolle (NNN) medium and then in tissue-culture flasks containing RPMI 1640 medium supplemented with 10% HIFCS and 1% 100 IU penicillin/mL-100 µg/mL streptomycin solution at 22 ℃ for promastigotes.
Stock solutions of 10 mg/mL of the synthesized compounds were prepared by dissolving each compound in DMSO for the antileishmanial activity testing. Stock solutions were diluted using complete RPMI to obtain aliquots of 10 µg/mL. Then, three-fold serial dilution with complete RPMI gave the final six working concentrations (10, 3.33, 1.11, 0.37, 0.12, and 0.04 µg/mL) of each of the synthesized compounds. Amphotericin B deoxycholate and miltefosine, which were used as positive controls for the comparison of the antileishmanial activities of the test compounds, were also made in three-fold serial dilutions. All the prepared drugs were stored at − 20 °C and retrieved only during use.
Prior to the in vitro antipromastigote testing, serial concentrations of the target compounds were prepared by implementing three-fold dilutions. Then, in a 96-well microtiter plate, 100 µl of each of the three-fold serial dilutions of the target compounds were added in triplicate wells. Then 100 µl of Leishmania donovani suspension containing 3.0 × 10^6 promastigotes per milliliter were added in duplicates. In this experiment, the media and DMSO served as a negative control. Moreover, the concentration of DMSO was maintained below 1% of the target compound preparation to avoid the potential growth inhibition and interference effect of DMSO in the entire antipromastigote assay. Properly labelled plates which belong to the negative-control group, positive-control groups (treated with miltefosine and amphotericin B deoxycholate) and target compounds were then kept in a humidified atmosphere at 22 ℃ under 5% CO2 […]. To determine the viability Leishmania donovani isolates after the respective treatment, 10 µL of fluorochrome AlamarBlue® solution prepared by dissolving 12.5 mg resazurin in 100 mL of distilled water was added to each well and incubated for 4 h. Then, the fluorescence intensity of each well was determined using Victor3 Multilabel Counter (PerkinElmer, Waltham, MA, USA), at 530 nm and 590 nm, excitation and emission wavelengths, respectively. The IC50 values of the negative-control, positive-control groups and test-groups were determined from sigmoidal dose-response curves using GraphPad Prism 5.0 software (GraphPad Software, Inc., San Diego, CA, USA).

[2] = tested on: Plasmodium berghei ANKA strain; assay: four-day standard suppressive test in infected mice; format: in vivo, Plasmodium berghei (Swiss albino mice); settings: for % Parasitemia: smear on 5th day, mean ± SD; for inhibition in vivo at 48.46 µmol/kg: Plasmodium berghei, 96 h, read-out: % Suppression
Description: In the present study, the in vivo antimalarial activities of the synthesized compounds were investigated using a mouse model which is ideal to elucidate the prodrug effects of the target compounds triggered by metabolic activation and eradication of infection due to the potential involvement of the immune system. To achieve a steady state infection against the experimental animals, Plasmodium berghei ANKA strain served as a parasite in the experiment and the effects of the target compounds was assessed by the standard four-day suppressive test (often employed to evaluate early infections) in terms of percent inhibition of parasitemia which is recognized as most trustworthy parameter in vivo antimalarial studies. Herein, the standard antimalarial drug chloroquine phosphate (CQ) and equimolar amounts (48.46 µmol/Kg) of the target 3-aryl-2-styry substituted-4(3H)-quinazolinone derivatives were administered orally and the % suppression, parasitemia level, and the survival time of mice were compared against mice treated with a formulation containing a solution of 7% Tween 80, and 3% ethanol in distilled water (control group).
Swiss albino male mice of weight 20–32 g and age 6–8 weeks were used for the antimalarial activity and acute toxicity tests. Plasmodium berghei ANKA strain is used to infect the mice for a four-day suppressive test, were obtained from Biomedical Laboratory, Department of Biology, Faculty of Science, AAU. Leishmania donovani isolate used in this study was obtained from the Leishmania Diagnosis and Research Laboratory (LDRL) culture bank, School of Medicine, AAU.
The antimalarial activities of the target compounds were assessed by the four-day standard suppressive test against mice infected with Plasmodium berghei. The mice were acclimatized to the experimental conditions in the animal house of Biomedical Laboratory, Addis Ababa University, Faculty of Science, Department of Biology, for seven days prior to the in vivo antimalarial activity testing. In due course, the mice were subjected to live in standard cages with a pelleted diet and water. To trigger a steadily rising infection in mice, blood infected with Plasmodium berghei ANKA strain (approximately 20–30% level of parasitemia) was collected from a donor mice using a syringe supplemented with 0.5% trisodium citrate and diluted in physiological saline to […]. Then, 0.2 mL of inoculum (supposed to have about 2 × 10^7 parasites) was injected into each mouse through the intraperitoneal route to achieve the desired level of infection within a short period of time. After 2 h of post-infection, the mice were carefully weighed using a digital balance and randomly assigned into nine groups where each group contain five mice. Of which, mice assigned as a negative control (Group 1) subjected to the formulation composed of 7% Tween 80, and 3% ethanol in distilled water (2 mL/100 g). In addition, mice which belong to the positive control (Group 2) was treated with 25 mg/kg/day (0.04846 mmol/kg/day) of chloroquine phosphate (CQ). The remaining groups (3–9) were subjected to oral treatment with equimolar amounts of the respective target compounds for four consecutive days. Finally, a blood smear was taken from the tail of the mice in the 5th day (24 h after the last dose), air-dried, fixed with absolute methanol and treated with 6% Giemsa stain. The mean parasitemia level of each group (control and treatment groups) was computed microscopically by counting the number of erythrocytes in four fields (⁓100 erythrocytes per field).

male Swiss albino mice = assay: in vivo oral acute toxicity test; settings: for mortality in mice: oral 50, 100, 200 and 300 mg/kg, within 24 h and entire study period (14 days); for visible signs of overt toxicity: oral up to 300 mg/kg, physical and behavioral observations, 14 days
Experimental: For this purpose, the mice were randomly allocated into six groups each containing six mice. The first five groups of mice (Group 1–5) received each target compound solubilized using 1% gum acacia at a dose of 10, 50, 100, 200 and 300 mg/kg, respectively. The mice in last group (group 6, served as a negative control) were orally treated with the solvent used to dissolve the target compounds (1% gum acacia) at a maximum dose of 1 mL/100 gm of body weight. Each mouse was then monitored for gross changes such as salivation, loss of appetite, lacrimation, hair erection, diarrhea, convulsions, death, and other signs of overt toxicity.

Leishmania major = tested on: Leishmania major; set-up: method as in PMID 20235747; settings: cited from earlier work
[3] = L. donovani promastigotes, 22 °C, AlamarBlue fluorescence, read-out: IC50 values, antipromastigote activity
[4] = mice infected with P. berghei ANKA, oral, 48.46 µmol/kg for four days (CQ 25 mg/kg)
[5] = po, mice infected with P. berghei ANKA, oral, 48.46 µmol/kg for four days (CQ 25 mg/kg), versus negative control
[6] = read-out: IC50 values, antipromastigote activity, L. donovani promastigotes, 22 °C, AlamarBlue fluorescence
[7] = L. donovani promastigotes, 22 °C, AlamarBlue fluorescence

Row | SMILES | IC50 [1, 3] | Mean survival time [2, 4] | % Parasitemia [2, 4] | mortality in mice (male Swiss albino mice) | visible signs of overt toxicity (male Swiss albino mice) | inhibition in vivo at 48.46 µmol/kg [2, 5] | IC50 [1, 6] | inhibition in vivo at 48.46 µmol/kg [2] | IC50, in vitro antileishmanial activity (Leishmania major) | IC50 values, antipromastigote activity [1, 7]
1 | C[C@@H]1[C@H](O)[C@@H](C)/C=C/C=C/C=C/C=C/C=C/C=C/C=C/[C@H](O[C@@H]2O[C@H](C)[C@@H](O)[C@H](N)[C@@H]2O)C[C@@H]2O[C@](O)(C[C@@H](O)C[C@@H](O)[C@H](O)CC[C@@H](O)C[C@@H](O)CC(=O)O[C@H]1C)C[C@H](O)[C@H]2C(=O)O [Amphotericin B, amphotericin B deoxycholate, reference compound] | 0.046 ± 0.009 µg/mL (≈ 0.0498 µM) | – | – | – | – | – | – | – | – | –
2 | COc1cc(/C=C/c2nc3ccccc3c(=O)n2-c2ccc(C)cc2)ccc1OC(C)=O [Compound 10, 4-((1E)-2-(3,4-dihydro-4-oxo-3-p-tolylquinazolin-2-yl)vinyl)-2-methoxyphenyl acetate] | 0.196 ± 0.042 µg/mL | 9.8 ± 0.24 days | 16.85 ± 0.39% | none of the compounds caused mortality | no visible signs of overt toxicity | – | – | – | – | –
3 | Cc1ccc(-n2c(/C=C/c3ccc(O)cc3)nc3ccccc3c2=O)cc1 [Compound 12, (E)-2-(4-hydroxystyryl)-3-p-tolylquinazolin-4(3H)-one] | – | 7.6 ± 1.12 days | 32 ± 0.5% | – | – | > 50% | 1.84 ± 0.168 µg/mL (≈ 5.2 µM) | – | – | –
4 | Cc1ccccc1-n1c(/C=C/c2ccc(Cl)cc2)nc2ccccc2c1=O [Compound 7, (E)-2-(4-chlorostyryl)-3-o-tolylquinazolin-4(3H)-one] | – | 6.9 ± 0.5 days | 35.69 ± 0.69% | – | – | < 50% | 3.25 ± 0.282 µg/mL (≈ 8.71 µM) | – | – | –
5 | Cc1ccccc1-n1c(/C=C/c2ccc(O)cc2)nc2ccccc2c1=O [Compound 11, (E)-2-(4-hydroxystyryl)-3-o-tolylquinazolin-4(3H)-one] | – | 7.3 ± 0.54 days | 25.27 ± 0.76% | – | – | > 50% | 0.185 ± 0.026 µg/mL (≈ 0.522 µM) | – | – | –
6 | CCN(CC)CCCC(C)Nc1ccnc2cc(Cl)ccc12 (stereo not drawn) [CQ, chloroquine phosphate, reference compound] | – | – | 0% | – | – | – | – | 100% | – | –
7 | O=c1c2ccccc2nc(-c2ccccc2)n1Cc1ccccc1 [III] | – | – | – | – | – | – | – | – | 48.91 µg/mL (≈ 157 µM) | –
8 | CC(=O)Oc1ccc(/C=C/c2nc3ccccc3c(=O)n2-c2ccccc2C)cc1 [Compound 8, 4-((1E)-2-(3,4-dihydro-4-oxo-3-o-tolylquinazolin-2-yl)vinyl)phenyl acetate] | – | 9.4 ± 0.37 days | 19.57 ± 0.77% | none of the compounds caused mortality | no visible signs of overt toxicity | – | 3.33 ± 0.126 µg/mL | – | – | –
9 | O=c1c2ccccc2nc(/C=C/c2ccc([N+](=O)[O-])cc2)n1-c1ccccc1 [Compound 6, (E)-2-(4-nitrostyryl)-3-phenylquinazolin-4(3H)-one] | – | 6.5 ± 0.3 days | 39.22 ± 0.7% | none of the compounds caused mortality | no visible signs of overt toxicity | < 50% | 0.0212 µg/mL (≈ 0.0574 µM) | – | – | 0.021 ± 0.008 µg/mL (≈ 0.0569 µM)
10 | COc1cc(/C=C/c2nc3ccccc3c(=O)n2-c2ccc(C)cc2)ccc1O [Compound 13, (E)-2-(4-hydroxy-3-methoxystyryl)-3-p-tolylquinazolin-4(3H)-one] | – | 7.9 ± 0.3 days | 24.13 ± 0.29% | – | – | > 50% | 2.27 ± 0.214 µg/mL (≈ 5.89 µM) | – | – | –
11 | CCCCCCCCCCCCCCCCOP(=O)([O-])OCC[N+](C)(C)C [Miltefosine, hexadecylphosphocholine, reference compound] | 3.19 µg/mL (≈ 7.83 µM) | – | – | – | – | – | – | – | – | 3.191 ± 0.194 µg/mL (≈ 7.83 µM)
